Results on six compounds are retold here after ChEMBL document CHEMBL3046814, “Induction effects of host plants on insecticide susceptibility and detoxification enzymes of Bemisia tabaci (Hemiptera: Aleyrodidae)” (2011).

In brackets after ≈: the same amount, converted by molar mass.

Holding throughout (type): functional
The test system of assay [1] is Bemisia tabaci. In words: Resistance ratio of LC50 for Bemisia tabaci (sweet potato whitefly) infested squash leaves to LC50 for Bemisia tabaci (sweet potato whitefly) infested cabbage leaves.
The test system of assay [2] is Bemisia tabaci. In words: Resistance ratio of LC50 for Bemisia tabaci (sweet potato whitefly) infested squash leaves to LC50 for Bemisia tabaci (sweet potato whitefly) infested cotton leaves.
For assay [3], the system named is Bemisia tabaci. In words: Resistance ratio of LC50 for Bemisia tabaci (sweet potato whitefly) infested poinsettia leaves to LC50 for Bemisia tabaci (sweet potato whitefly) infested cabbage leaves.
Assay [4] relates to Bemisia tabaci. The assay can be described thus: Insecticidal activity against Bemisia tabaci (sweet potato whitefly) infested cabbage leaves assessed as mortality after 48 hr by leaf dip method. The conditions noted are these: foliar.
For assay [5], the system named is Bemisia tabaci. The assay can be described thus: Resistance ratio of LC50 for Bemisia tabaci (sweet potato whitefly) infested poinsettia leaves to LC50 for Bemisia tabaci (sweet potato whitefly) infested tomato leaves.
In assay [6] the test system is Bemisia tabaci. In words: Insecticidal activity against Bemisia tabaci (sweet potato whitefly) infested tomato leaves assessed as mortality after 48 hr by leaf dip method. The conditions noted are these: foliar.
Assay [7] concerns Bemisia tabaci. The assay can be described thus: Insecticidal activity against Bemisia tabaci (sweet potato whitefly) infested cucumber leaves assessed as mortality after 48 hr by leaf dip method. The conditions noted are these: foliar.
The subject of assay [8] is Bemisia tabaci. In words: Insecticidal activity against Bemisia tabaci (sweet potato whitefly) infested cotton leaves assessed as mortality after 48 hr by leaf dip method. The conditions noted are these: foliar.
Assay [9] has as its system Bemisia tabaci. In words: Insecticidal activity against Bemisia tabaci (sweet potato whitefly) infested poinsettia leaves assessed as mortality after 48 hr by leaf dip method. The conditions noted are these: foliar.
Assay [10] concerns Bemisia tabaci. The assay can be described thus: Resistance ratio of LC50 for Bemisia tabaci (sweet potato whitefly) infested poinsettia leaves to LC50 for Bemisia tabaci (sweet potato whitefly) infested cucumber leaves.

A word on the LC50: it is the concentration lethal to half of the exposed cells or organisms. Consider `Cc1c(COC(=O)[C@@H]2[C@H](/C=C(\Cl)C(F)(F)F)C2(C)C)cccc1-c1ccccc1` [BIFENTHRIN], for which the RatioLC50 in the assay on Bemisia tabaci [1] worked out at 7.5; in the assay with Bemisia tabaci [2], 7.5; in the assay with Bemisia tabaci [3], 3.19; with Bemisia tabaci [5] it was 4.02. In addition, the LC50 in the assay with Bemisia tabaci [4] was 145 µg/mL (≈ 343 µM); in the assay on Bemisia tabaci [6] it was 115 µg/mL (≈ 272 µM); with Bemisia tabaci [7] it was 462 µg/mL (≈ 1090 µM); with Bemisia tabaci [8], 228 µg/mL (≈ 539 µM); in the assay on Bemisia tabaci [9], 278 µg/mL (≈ 657 µM).
On to `C/C(=N\C#N)N(C)Cc1ccc(Cl)nc1` [ACETAMIPRID], for which the RatioLC50 in the assay on Bemisia tabaci [10] is recorded as 10.34; with Bemisia tabaci [5], 14.8. Moreover, the LC50 with Bemisia tabaci [4] worked out at 17.7 µg/mL (≈ 79.5 µM); with Bemisia tabaci [6], 8.73 µg/mL (≈ 39.2 µM); in the assay on Bemisia tabaci [7] it was 12.4 µg/mL (≈ 55.7 µM); in the assay with Bemisia tabaci [8] it was 66.4 µg/mL (≈ 298 µM); in the assay with Bemisia tabaci [9] it was 129 µg/mL (≈ 579 µM).
Consider `CCCCN(CCCC)SN(C)C(=O)Oc1cccc2c1OC(C)(C)C2` [CARBOSULFAN], for which the RatioLC50 in the assay with Bemisia tabaci [3] was 5.36; in the assay on Bemisia tabaci [5], 6.36. For the same compound, the LC50 in the assay with Bemisia tabaci [4] was found to be 696 µg/mL (≈ 1830 µM); with Bemisia tabaci [6], 586 µg/mL (≈ 1540 µM); with Bemisia tabaci [7] it was 3090 µg/mL (≈ 8110 µM); in the assay with Bemisia tabaci [8] it was 2880 µg/mL (≈ 7560 µM); with Bemisia tabaci [9], 3730 µg/mL (≈ 9790 µM).
In the case of `N#Cc1nn(-c2c(Cl)cc(C(F)(F)F)cc2Cl)c(N)c1[S+]([O-])C(F)(F)F` (centres undefined) [FIPRONIL], the LC50 came to 3.82 µg/mL (≈ 8.74 µM) in the assay on Bemisia tabaci [4]; 5.96 µg/mL (≈ 13.6 µM) in the assay with Bemisia tabaci [6]; 8.79 µg/mL (≈ 20.1 µM) in the assay on Bemisia tabaci [7]; 3.51 µg/mL (≈ 8.03 µM) in the assay on Bemisia tabaci [8]; 9.13 µg/mL (≈ 20.9 µM) with Bemisia tabaci [9].
As for `CCOP(=S)(OCC)Oc1nc(Cl)c(Cl)cc1Cl` [CHLORPYRIFOS], the LC50 in the assay with Bemisia tabaci [4] worked out at 722 µg/mL (≈ 2060 µM); in the assay on Bemisia tabaci [6], 581 µg/mL (≈ 1660 µM); with Bemisia tabaci [7], 924 µg/mL (≈ 2640 µM); in the assay on Bemisia tabaci [8] it was 1410 µg/mL (≈ 4030 µM); in the assay on Bemisia tabaci [9], 2120 µg/mL (≈ 6040 µM). Also, the RatioLC50 in the assay with Bemisia tabaci [5] was 3.65.
In the case of `CC[C@H](C)[C@H]1O[C@]2(C=C[C@@H]1C)C[C@@H]1C[C@@H](C/C=C(\C)[C@@H](O[C@H]3C[C@H](OC)[C@@H](O[C@H]4C[C@H](OC)[C@@H](O)[C@H](C)O4)[C@H](C)O3)[C@@H](C)/C=C/C=C3\CO[C@@H]4[C@H](O)C(C)=C[C@@H](C(=O)O1)[C@]34O)O2.CO[C@H]1C[C@H](O[C@H]2[C@H](C)O[C@@H](O[C@@H]3/C(C)=C/C[C@@H]4C[C@@H](C[C@]5(C=C[C@H](C)[C@@H](C(C)C)O5)O4)OC(=O)[C@@H]4C=C(C)[C@@H](O)[C@H]5OC/C(=C\C=C\[C@@H]3C)[C@]54O)C[C@@H]2OC)O[C@@H](C)[C@@H]1O` [ABAMECTIN], the LC50 is 0.3 µg/mL in the assay with Bemisia tabaci [4]; 0.4 µg/mL with Bemisia tabaci [6]; 0.5 µg/mL in the assay on Bemisia tabaci [7]; 0.7 µg/mL in the assay on Bemisia tabaci [8]; 0.74 µg/mL with Bemisia tabaci [9].
